Bounds are passed on as bounds.

The test system of one assay is VCaP cells. Nature of the assay: Cellular growth inhibition assay for VCaP cells, CellTiter-Glo. Type of assay: cell-based, human. The following applies: 72 hours. In a few lines:
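GI50 values come from four-parameter curve fits of luminescence data normalized to a zero baseline. Compound, in medium with 0.5% DMSO, was added one day after plating and left for 72 h before CellTiter-Glo 2.0 addition.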
For orientation: Cellular ATP, detected with luciferase, serves as a proxy for viable cell number.
As usually defined, the GI50 is the concentration at which growth is held to half of that of the control. A higher GI50 goes with lower sensitivity of the cells. In the case of `Cn1cc(-c2cc(C(C)(C)O)ccc2Oc2ccc(C3(NCC4CCN(c5ncc(C(=O)N[C@H]6C(C)(C)[C@H](Oc7ccc(C#N)c(Cl)c7)C6(C)C)cn5)CC4)COC3)cc2)c2cc[nH]c2c1=O` [Compound I-256], the GI50 is under 500 nM.

On to `CCS(=O)(=O)c1ccc(Oc2cccc(CCCC3CCN(c4ncc(C(=O)N[C@H]5C(C)(C)[C@H](Oc6ccc(C#N)c(Cl)c6)C5(C)C)cn4)CC3)c2)c(-c2cn(C)c(=O)c3[nH]ccc23)c1` [Compound I-248], for which the 50% growth inhibitory concentration (GI50) was 500 to 1500 nM. Still for that read-out and setting: the figure for `Cn1cc(-c2cc(C(C)(C)O)ccc2Oc2ccc(F)c(CCCN3CC4(C3)CN(c3ncc(C(=O)N[C@H]5C(C)(C)[C@H](Oc6ccc(C#N)c(Cl)c6)C5(C)C)cn3)C4)c2F)c2cc[nH]c2c1=O` [Compound I-247] is under 500 nM.

The subject of a further assay is T47D cells. Nature of the assay: Cellular Growth Inhibition Assay for T47D Cells (CellTiter-Glo). In kind it is cell-based, human. The following applies: 72 hours. As for the experimental part:
Exemplary compounds were tested for ability to inhibit the proliferation of T47D cells. T47D cells are a commercially available human breast cancer cell line.
T47D cells were purchased from American Type Cell Culture (ATCC Cat #HTB-133) and then seeded on poly-D-lysine coated, black clear-bottom 384-well plates at 3000/well in 25 μL Dulbecco's Modified Eagle Medium (DMEM) supplemented with 10% w/w Fetal bovine serum (FBS), 0.2 units/mL recombinant human insulin (Gibco Cat #12585014), and 1% w/w Pen-Strep. Pen-Strep is a commercially available mixture of penicillin G and streptomycin, which is used in mammalian cell culture media to prevent bacterial contamination. Dulbecco's Modified Eagle Medium (DMEM) supplemented with 10% w/w fetal bovine serum (FBS), 0.2 units/mL recombinant human insulin, and 1% w/w Pen-Strep is herein referred to as Treatment Medium. Following seeding of cells in the plates, the plates were spun at 300×g for 30 seconds, then equilibrated to room temperature for 30 minutes, and then deposited in a humidified tissue culture incubator maintained at 37° C. with 5% CO2.
At 24 hours after seeding of the cells, dilutions of test compound were prepared in DMSO and dissolved in Treatment Medium, to achieve a final DMSO concentration of 0.5% w/w, thereby providing the Test Compound Solution. A 25 μL aliquot of the Test Compound Solution was added to cells in the well plates. An equal volume of a solution containing DMSO and Treatment Medium was used as a negative control. Following treatment of cells with Test Compound Solution or said equal volume of a solution containing DMSO and Treatment Medium, the plates were spun at 300×g for 30 seconds, and then left in an incubator for 72 hours.
At the end of the treatment duration, cell viability was quantified with CellTiter-Glo 2.0 reagent (Promega Cat #G9243). For this purpose, plates were equilibrated to room temperature for 30 minutes, and then 25 μL of CellTiter-Glo 2.0 reagent was added to cells in the plate wells. Plates were then agitated on a shaker for two minutes at 500 rpm and subsequently incubated at room temperature for 10 minutes. Following incubation, the plates were spun at 3000×g for 30 seconds, then sealed with an optical adhesive cover, and luminescence readings were measured with an EnVision Plate Reader (Perkin Elmer).
Data was normalized using zero luminescence for baseline. A four-parameter non-linear regression curve fit was applied to dose-response data in GraphPad Prism data analysis software to determine the half-maximal growth inhibitory concentration (GI50) for each test compound.
Consider `Cn1cc(-c2cc(C(C)(C)O)ccc2Oc2ccc(C3(NCC4CCN(c5ncc(C(=O)N[C@H]6C(C)(C)[C@H](Oc7ccc(C#N)c(Cl)c7)C6(C)C)cn5)CC4)COC3)cc2)c2cc[nH]c2c1=O` [Compound I-256], for which the GI50 is under 500 nM. Same read-out and setting: the figure for `CCS(=O)(=O)c1ccc(Oc2cccc(CCCC3CCN(c4ncc(C(=O)N[C@H]5C(C)(C)[C@H](Oc6ccc(C#N)c(Cl)c6)C5(C)C)cn4)CC3)c2)c(-c2cn(C)c(=O)c3[nH]ccc23)c1` [Compound I-248] is under 500 nM. The compound `Cn1cc(-c2cc(C(C)(C)O)ccc2Oc2ccc(F)c(CCCN3CC4(C3)CN(c3ncc(C(=O)N[C@H]5C(C)(C)[C@H](Oc6ccc(C#N)c(Cl)c6)C5(C)C)cn3)C4)c2F)c2cc[nH]c2c1=O` [Compound I-247] had a GI50 of under 500 nM.

For `Cn1cc(-c2cc(C(C)(C)O)ccc2Oc2cccc(N3CC(CC4CCN(c5ncc(C(=O)N[C@H]6C(C)(C)[C@H](Oc7ccc(C#N)c(Cl)c7)C6(C)C)cn5)CC4)C3)c2)c2cc[nH]c2c1=O` [Compound I-376], the GI50 was under 500 nM. Same read-out and setting: as for `COc1cc(O[C@H]2C(C)(C)[C@H](NC(=O)c3cnc(N4CCC(CC5CN(c6ccc(Oc7ccc(C(C)(C)O)cc7-c7cn(C)c(=O)c8[nH]ccc78)cc6)C5)CC4)cn3)C2(C)C)ccc1C#N` [Compound I-384], the figure is under 500 nM; as for `Cn1cc(-c2cc(C(C)(C)O)ccc2Oc2cccc(CC3CCN(c4ncc(C(=O)N[C@H]5C(C)(C)[C@H](Oc6ccc(C#N)c(Cl)c6)C5(C)C)cn4)CC3)c2)c2cc[nH]c2c1=O` [Compound I-374], 500 to 1500 nM; as for `Cn1cc(-c2ccccc2Oc2ccc(N3CC(CC4CCN(c5ccc(C(=O)N[C@H]6C(C)(C)[C@H](Oc7ccc(C#N)c(Cl)c7)C6(C)C)nc5)CC4)C3)cc2)c2cc[nH]c2c1=O` [Compound I-364], over 3000 nM. Still for that read-out and setting: as for `Cn1cc(-c2cc(C(C)(C)O)ccc2Oc2ccccc2)c2cc(C(=O)NC3CC(CC4CCN(c5ccc(C(=O)N[C@H]6C(C)(C)[C@H](Oc7ccc(C#N)c(Cl)c7)C6(C)C)nc5)CC4)C3)[nH]c2c1=O` (some centres unmarked) [Compound I-378], the figure is over 3000 nM; as for `Cn1cc(-c2ccccc2Oc2ccc(N3CC(CC4CN(c5ncc(C(=O)N[C@H]6C(C)(C)[C@H](Oc7ccc(C#N)c(Cl)c7)C6(C)C)cn5)C4)C3)cc2)c2cc[nH]c2c1=O` [Compound I-363], under 500 nM. On the same count and under the same terms, as for `Cn1cc(-c2cc(C(C)(C)O)ccc2Oc2ccc(N3CC(C4CCN(c5ncc(C(=O)N[C@H]6C(C)(C)[C@H](Oc7ccc(C#N)c(C(F)(F)F)c7)C6(C)C)cn5)CC4)C3)cc2)c2cc[nH]c2c1=O` [Compound I-389], the figure is under 500 nM. In turn, `Cn1cc(-c2ccccc2Oc2ccc(N3CC(C4CCN(c5cnc(C(=O)N[C@H]6C(C)(C)[C@H](Oc7ccc(C#N)c(Cl)c7)C6(C)C)cn5)CC4)C3)cc2)c2cc[nH]c2c1=O` [Compound I-365] gave a GI50 of under 500 nM.

As for `Cn1cc(-c2cc(C(C)(C)O)ccc2Oc2ccc(N3CC(C4CCN(c5ccc(C(=O)N[C@H]6C(C)(C)[C@H](Oc7ccc(C#N)c(Cl)c7)C6(C)C)nc5)CC4)C3)cc2)c2cc[nH]c2c1=O` [Compound I-388], the GI50 is under 500 nM. Still for that read-out and setting: the figure for `COc1cc(Oc2ccc(C(C)(C)O)cc2-c2cn(C)c(=O)c3[nH]ccc23)ccc1N1CC(CC2CCN(c3cnc(C(=O)N[C@H]4C(C)(C)[C@H](Oc5ccc(C#N)c(Cl)c5)C4(C)C)cn3)CC2)C1` [Compound I-394] is under 500 nM; for `Cn1cc(-c2ccccc2Oc2ccc(N3CC(CC4CCN(c5ncc(C(=O)N[C@H]6C(C)(C)[C@H](Oc7ccc(C#N)c(Cl)c7)C6(C)C)cn5)CC4)C3)cc2)c2cc[nH]c2c1=O` [Compound I-359] it is over 3000 nM.

Still in this assay, the particulars now being: Homo sapiens, 72 hours.
In turn, `Cn1cc(-c2cc(C(C)(C)O)ccc2Oc2ccc(C#CC3CC4(C3)CN(c3ncc(C(=O)NC5C(C)(C)C(Oc6ccc(C#N)c(Cl)c6)C5(C)C)cn3)C4)cc2)c2cc[nH]c2c1=O` (centres unmarked) [Compound I-357, N-[3-(3-chloro-4-cyano-phenoxy)-2,2,4,4-tetramethyl-cyclobutyl]-2-[6-[2-[4-[4-(1-hydroxy-1-methyl-ethyl)-2-(6-methyl-7-oxo-1H-pyrrolo[2,3-c]pyridin-4-yl)phenoxy]phenyl]ethynyl]-2-azaspiro[3.3]heptan-2-yl]pyrimidine-5-carboxamide] displayed a GI50 of under 500 nM. The same measure, in the same setting: the figure for `Cn1cc(-c2cc(C(C)(C)O)ccc2Oc2ccccc2N2CC(CC3CCN(c4ncc(C(=O)NC5C(C)(C)C(Oc6ccc(C#N)c(Cl)c6)C5(C)C)cn4)CC3)C2)c2cc[nH]c2c1=O` (centres unmarked) [Compound I-387, N-[3-(3-chloro-4-cyano-phenoxy)-2,2,4,4-tetramethyl-cyclobutyl]-2-[4-[[1-[2-[4-(1-hydroxy-1-methyl-ethyl)-2-(6-methyl-7-oxo-1H-pyrrolo[2,3-c]pyridin-4-yl)phenoxy]phenyl]azetidin-3-yl]methyl]-1-piperidyl]pyrimidine-5-carboxamide] is over 3000 nM. Same read-out and setting: the figure for `Cn1cc(-c2ccccc2Oc2ccc(OC3CC4(C3)CC3(CCN(c5ncc(C(=O)N[C@H]6C(C)(C)[C@H](Oc7ccc(C#N)c(Cl)c7)C6(C)C)cn5)CC3)C4)cc2)c2cc[nH]c2c1=O` [Compound I-358] is over 3000 nM; for `Cn1cc(-c2cc(C(C)(C)O)ccc2Oc2ccc(N3CC(C[C@@H]4[C@H]5CN(c6ncc(C(=O)N[C@H]7C(C)(C)[C@H](Oc8ccc(C#N)c(Cl)c8)C7(C)C)cn6)C[C@@H]45)C3)cc2)c2cc[nH]c2c1=O` [Compound I-372] it is under 500 nM; for `Cn1cc(-c2cc(C(C)(C)O)ccc2Oc2ccc(N3CC(CC4CCN(c5cnc(C(=O)N[C@H]6C(C)(C)[C@H](Oc7ccc(C#N)c(Cl)c7)C6(C)C)cn5)CC4)C3)cc2Cl)c2cc[nH]c2c1=O` [Compound I-393] it is under 500 nM.

`Cn1cc(-c2cc(C(C)(C)O)ccc2Oc2ccc(CC3CC4(CCN(c5ccc(C(=O)N[C@H]6C(C)(C)[C@H](Oc7ccc(C#N)c(Cl)c7)C6(C)C)nc5)CC4)C3)cc2)c2cc[nH]c2c1=O` [Compound I-379] came in with a 50% growth inhibitory concentration (GI50) of 1500 to 3000 nM. Same read-out and setting: as for `Cn1cc(-c2cc(C(C)(C)O)ccc2Oc2ccc(N3CC(CC4CCN(c5cnc(C(=O)N[C@H]6C(C)(C)[C@H](Oc7ccc(C#N)c(F)c7)C6(C)C)cn5)CC4)C3)cc2)c2cc[nH]c2c1=O` [Compound I-383], the figure is under 500 nM. On the same count and under the same terms, the figure for `Cn1cc(-c2cc(C(C)(C)O)ccc2Oc2ccc(CC3CCN(c4ccc(C(=O)N[C@H]5C(C)(C)[C@H](Oc6ccc(C#N)c(Cl)c6)C5(C)C)nc4)CC3)cc2)c2cc[nH]c2c1=O` [Compound I-368] is under 500 nM; for `Cn1cc(-c2ccccc2Oc2ccc(CC3CCN(c4cnc(C(=O)N[C@H]5C(C)(C)[C@H](Oc6ccc(C#N)c(Cl)c6)C5(C)C)cn4)CC3)cc2)c2cc[nH]c2c1=O` [Compound I-371] it is under 500 nM; for `Cn1cc(-c2cc(C(C)(C)O)ccc2Oc2ccccc2)c2cc(C(=O)NC3CC(CC4CCN(c5ccc(C(=O)NC6C(C)(C)C(Oc7ccc(C#N)c(Cl)c7)C6(C)C)nc5)CC4)C3)[nH]c2c1=O` (centres unmarked) [Compound I-377, N-[3-[[1-[6-[[3-(3-chloro-4-cyano-phenoxy)-2,2,4,4-tetramethyl-cyclobutyl]carbamoyl]-3-pyridyl]-4-piperidyl]methyl]cyclobutyl]-4-[5-(1-hydroxy-1-methyl-ethyl)-2-phenoxy-phenyl]-6-methyl-7-oxo-1H-pyrrolo[2,3-c]pyridine-2-carboxamide] it is over 3000 nM. The same measure, in the same setting: as for `Cn1cc(-c2cc(C(C)(C)O)ccc2Oc2ccc(OC3CC4(C3)CC3(CCN(c5ccc(C(=O)N[C@H]6C(C)(C)[C@H](Oc7ccc(C#N)c(Cl)c7)C6(C)C)nc5)CC3)C4)cc2)c2cc[nH]c2c1=O` [Compound I-367], the figure is over 3000 nM; as for `Cc1cc(Oc2ccc(C(C)(C)O)cc2-c2cn(C)c(=O)c3[nH]ccc23)cc(C)c1N1CC(CC2CCN(c3cnc(C(=O)N[C@H]4C(C)(C)[C@H](Oc5ccc(C#N)c(Cl)c5)C4(C)C)cn3)CC2)C1` [Compound I-391, N-[3-(3-chloro-4-cyano-phenoxy)-2,2,4,4-tetramethyl-cyclobutyl]-5-[4-[[1-[4-[4-(1-hydroxy-1-methyl-ethyl)-2-(6-methyl-7-oxo-1H-pyrrolo[2,3-c]pyridin-4-yl)phenoxy]-2,6-dimethyl-phenyl]azetidin-3-yl]methyl]-1-piperidyl]pyrazine-2-carboxamide], under 500 nM.

(Values after patent US20250388605A1, “HETEROBIFUNCTIONAL COMPOUNDS AND METHODS OF TREATING DISEASE” (Halda Therapeutics OpCo, Inc., priority 2022, published 2025).)
